Data as given in patent publication US20230373937A1, “INHIBITORS OF SPINSTER HOMOLOG 2 (SPNS2) FOR USE IN THERAPY” (University of Virginia Patent Foundation, priority 2020, published 2023).
pIC50: −log10 of the molar value. Where a name gives a salt, the structure may show the parent alone.

Molecular target: T1, SPNS2 (Mus musculus, UniProt Q91VM4)
T1 construct: expressed in transfected cells; host or cells: HeLa or U937 cells
T1 sequence (Q91VM4 1-549): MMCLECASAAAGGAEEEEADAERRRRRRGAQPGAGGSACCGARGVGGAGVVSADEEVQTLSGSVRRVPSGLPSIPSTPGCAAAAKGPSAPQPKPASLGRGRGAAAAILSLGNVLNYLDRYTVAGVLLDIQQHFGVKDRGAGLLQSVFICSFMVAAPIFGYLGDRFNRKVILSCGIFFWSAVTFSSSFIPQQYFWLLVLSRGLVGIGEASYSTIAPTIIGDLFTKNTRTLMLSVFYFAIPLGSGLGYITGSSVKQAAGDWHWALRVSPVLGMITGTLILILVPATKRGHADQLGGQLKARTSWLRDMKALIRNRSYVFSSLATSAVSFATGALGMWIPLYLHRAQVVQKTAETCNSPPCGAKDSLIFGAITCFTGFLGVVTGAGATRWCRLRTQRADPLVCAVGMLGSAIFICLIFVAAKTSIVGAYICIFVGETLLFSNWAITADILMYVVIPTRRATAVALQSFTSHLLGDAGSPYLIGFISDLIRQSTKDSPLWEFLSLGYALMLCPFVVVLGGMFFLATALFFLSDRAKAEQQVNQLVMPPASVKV
Test: S1P transporter assay: S1P release from whole cells expressing SPNS2
Assay type: cell-based
Conditions: HeLa or U937 cells expressing mouse SPNS2; 18 hours; S1P in media measured by LC-MS; read-out: IC50 (in vitro inhibition against SPNS2)
Method: Transporter assays are vectorial and therefore require measurement of the transported analyte in different compartments. The S1P transporter SPNS2 only exports S1P, which obviates measuring uptake of S1P into transporter-expressing cells. Thus, transporter activity was determined by quantifying S1P release from whole cells expressing SPNS2. SPNS2 inhibitor potency was assessed using whole cell assays. HeLa or U937 cells expressing mouse SPNS2 were used to determine inhibitor potency (IC50). Cells were plated onto 12 well plates and assayed when the cell monolayers became confluent. Cell growth media (RPMI-1640 containing 10% fetal bovine serum) was replaced with 2 mL of serum-free media (RPMI-1640) containing fatty acid free bovine serum albumin (BSA) (0.2% w/v) and supplemented with 4-deoxypyridoxine (DOP) (1 mM), NaF (2 mM), Na3VO4 (0.2 mM) to inhibit S1P degradation. Test articles (1×10-9-1×10^-4 M) were assayed in duplicate or triplicate. After 18 hours, media was collected, an internal recovery standard (0.005 mL of 5×10^-7 M deuterated (d7) S1P in methanol) was added, the BSA was precipitated with trichloroacetic acid and the bound S1P extracted with methanol. S1P and S1P-d7 were measured by liquid chromatography mass spectrometry. Inhibitor potency at the human SPNS2 ortholog was determined by an analogous assay using U-937 cells, which endogenously express human SPNS2.

Compound	pIC50
CCCCCCCCCCc1ccc(-c2noc(CNC(=O)CCN)n2)cc1 [Compound 9e, 3-amino-N-((3-(4-decylphenyl)-1,2,4-oxadiazol-5-yl)methyl)propanamide hydrochloride]	< 5.70
CCCCCCCCCCc1ccc(-c2noc(CN)n2)cc1 [Compound 5f, (3-(4-decylphenyl)-1,2,4-oxadiazol-5-yl)methanamine 2,2,2-trifluoroacetate]	≥ 5.70
CCCCCCCCCCc1ccc(-c2noc(CNC(=O)CCCCN)n2)cc1 [Compound 9g, 5-amino-N-((3-(4-decylphenyl)-1,2,4-oxadiazol-5-yl)methyl)pentanamide hydrochloride]	≥ 5.70
CCCCCCCCCCc1ccc(-c2noc(CNC(=O)CN)n2)cc1 [Compound 9b, 2-amino-N-((3-(4-decylphenyl)-1,2,4-oxadiazol-5-yl)methyl)acetamide hydrochloride]	< 5.70
CCCCCCCCCCc1ccc(-c2noc(CNC(=O)[C@@H]3CCCCN3)n2)cc1 [Compound 9i, (S)—N-((3-(4-decylphenyl)-1,2,4-oxadiazol-5-yl)methyl)piperidine-2-carboxamide hydrochloride]	≥ 5.70
CCCCCCCCCCc1ccc(-c2noc(CNC(=O)[C@@H](N)CC(C)C)n2)cc1 [Compound 9ad, (S)-2-amino-N-((3-(4-decylphenyl)-1,2,4-oxadiazol-5-yl)methyl)-4-methylpentanamide hydrochloride]	< 5.70
CCCCCCCCCCc1ccc(-c2noc(CNC(=O)C[C@@H]3CCCNC3)n2)cc1 [Compound 9o, (S)—N-((3-(4-decylphenyl)-1,2,4-oxadiazol-5-yl)methyl)-2-(piperidin-3-yl)acetamide hydrochloride]	< 5.70
CCCCCCCCCCc1ccc(-c2noc(CC[C@@H](N)C(=O)O)n2)cc1 [Compound 5y, (R)-2-amino-4-(3-(4-decylphenyl)-1,2,4-oxadiazol-5-yl)butanoic acid hydrochloride]	< 5.70
CCCCCCCCCOc1ccc(-c2noc(CCCN)n2)cc1C(F)(F)F [Compound 5u, 3-(3-(4-(nonyloxy)-3-(trifluoromethyl)phenyl)-1,2,4-oxadiazol-5-yl)propan-1-amine hydrochloride]	< 5.70
CCCCCCCCCCc1ccc(-c2noc(CNC(=O)[C@H](C)N)n2)cc1 [Compound 9a, (S)-2-amino-N-((3-(4-decylphenyl)-1,2,4-oxadiazol-5-yl)methyl)propanamide hydrochloride]	≥ 5.70
CCCCCCCCCCc1ccc(-c2noc(CNC(=O)[C@@H]3CCCN3)n2)cc1 [Compound 9m, (S)—N-((3-(4-decylphenyl)-1,2,4-oxadiazol-5-yl)methyl)pyrrolidine-2-carboxamide hydrochloride]	≥ 5.70

Results, then the molecule that gave them:

pIC50	Compound
< 5.70	CCCCCCCCCCc1ccc(-c2noc([C@@H](N)CCCN)n2)cc1 [Compound 19b, (S)-1-(3-(4-decylphenyl)-1,2,4-oxadiazol-5-yl)butane-1,4-diamine dihydrochloride]
≥ 5.70	CCCCCCCCCCc1ccc(-c2noc(C(=O)NCCN)n2)cc1 [Compound 16a, N-(2-aminoethyl)-3-(4-decylphenyl)-1,2,4-oxadiazole-5-carboxamide hydrochloride]
< 5.70	CCCCNC(=O)c1ccc(-c2noc([C@@H]3CCNC3)n2)cc1 [Compound 13a, (R)—N-butyl-4-(5-(pyrrolidin-3-yl)-1,2,4-oxadiazol-3-yl)benzamide hydrochloride]
< 5.70	CCCCCCCCNC(=O)c1ccc(-c2noc([C@@H]3CCNC3)n2)cc1 [Compound 13c, (R)—N-octyl-4-(5-(pyrrolidin-3-yl)-1,2,4-oxadiazol-3-yl)benzamide hydrochloride]
